Laboratory results from ChEMBL document CHEMBL1201862, “PubChem BioAssay data set” (2004).
Active and inactive are the calls of the source.

What was measured:
[1] = target: T1, Tyrosine-protein phosphatase non-receptor type 7 (Homo sapiens, UniProt P35236); assay: inhibitors of human HePTP phosphatase, […], biochemical, absorbance, leukemia target (AID 521); type: functional
T1 sequence (P35236 whole entry): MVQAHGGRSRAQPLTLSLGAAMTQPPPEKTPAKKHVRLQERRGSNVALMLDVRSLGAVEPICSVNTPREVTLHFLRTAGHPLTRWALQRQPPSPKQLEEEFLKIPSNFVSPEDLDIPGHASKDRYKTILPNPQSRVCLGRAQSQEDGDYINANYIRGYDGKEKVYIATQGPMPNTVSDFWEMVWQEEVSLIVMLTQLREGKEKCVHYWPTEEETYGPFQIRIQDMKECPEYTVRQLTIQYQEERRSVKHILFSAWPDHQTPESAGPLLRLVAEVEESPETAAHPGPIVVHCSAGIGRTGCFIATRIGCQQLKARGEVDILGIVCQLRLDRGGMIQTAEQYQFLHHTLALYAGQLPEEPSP

[2] = ZM109 Env clade C HIV-1 fusion inhibitors, dose response, HeLa effector, CEM target cells, luciferase, cherry-pick (AID 652058); type: functional, cell-based
[3] = inhibitors of clade B AD8 Env fusion, dose response, cell-based, cherry-pick (AID 652062); type: functional;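 further: luciferase signal from cell-cell fusion driven by HIV-1 clade B AD8 Env; potency is for inhibitors of fusion seen as a drop in luminescence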
[4] = target: Paired box protein Pax-8 (Homo sapiens, UniProt Q06710); assay: inhibitors of PAX8-driven TPO luciferase reporter, dose response, RMG-I cells, cherry-pick (AID 687027); type: functional, cell-based;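 further: luciferase reporter driven by Pax8 target thyroperoxidase promoter measured by SteadyGlo luminescence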
[5] = A549 cell cytotoxicity, dose response, CellTiter-Glo luminescence, dry powder, set 17 (AID 1117284); type: functional, cell-based
[6] = miR-122 activators in hepatoma reporter cells, dose response, cell-based, Huh7 psiCHECK-miR122, Renilla luciferase, cherry-picked (AID 651956); type: functional;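 further: huh7 hepatoma cells stably carrying a psiCHECK-2 miR-122 sensor plasmid; renilla luciferase signal reporting endogenous miR-122 activity after 48 h compound exposure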
[7] = HEK293T cytotoxicity, dose response, cytotoxicity control for miR-122 modulator project, cell-based, inhibitor set, cherry-pick, set 2 (AID 720697); type: functional
[8] = HEK293T cytotoxicity, dose response, cytotoxicity control for miR-122 modulator project, cell-based, activator set, cherry-pick (AID 720690); type: functional;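 further: HEK293T human cells scored for general mammalian cytotoxicity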
[9] = A549 cell cytotoxicity, dose response, cytotoxicity control, 24 h, CellTiter-Glo luminescence, cherry-picks (AID 1053115); type: functional, cell-based; conditions: A549, 24 h
[10] = HepG2 cell cytotoxicity, dose response, cytotoxicity control, cherry-picked samples (AID 1159577); type: functional, cell-based
[11] = P. falciparum Dd2 growth inhibitors, dose response, SYBR Green, cherry-picked samples (AID 1159567); type: functional, cell-based
[12] = target: Procathepsin L (Homo sapiens, UniProt P07711); assay: cathepsin L inhibitors, dose response, counter-screen for M1/M17 aminopeptidase inhibitor project, biochemical, QFRET, 1536-well (AID 2214)
[13] = target: T2, Aspartyl aminopeptidase (Plasmodium falciparum 3D7, UniProt Q8I2J3); assay: Counterscreen for inhibitors of M1 and M17 aminopeptidases: QFRET-based biochemical high throughput dose response assay for inhibitors of the Plasmodium falciparum M18 Aspartyl Aminopeptidase (PFM18AAP). [Related PubChem assays: 1619 (Screening assay (M17LAP inhibitors).), 1445 (Screening assay (M1AAP inhibitors).)]
T2 sequence (Q8I2J3 whole entry): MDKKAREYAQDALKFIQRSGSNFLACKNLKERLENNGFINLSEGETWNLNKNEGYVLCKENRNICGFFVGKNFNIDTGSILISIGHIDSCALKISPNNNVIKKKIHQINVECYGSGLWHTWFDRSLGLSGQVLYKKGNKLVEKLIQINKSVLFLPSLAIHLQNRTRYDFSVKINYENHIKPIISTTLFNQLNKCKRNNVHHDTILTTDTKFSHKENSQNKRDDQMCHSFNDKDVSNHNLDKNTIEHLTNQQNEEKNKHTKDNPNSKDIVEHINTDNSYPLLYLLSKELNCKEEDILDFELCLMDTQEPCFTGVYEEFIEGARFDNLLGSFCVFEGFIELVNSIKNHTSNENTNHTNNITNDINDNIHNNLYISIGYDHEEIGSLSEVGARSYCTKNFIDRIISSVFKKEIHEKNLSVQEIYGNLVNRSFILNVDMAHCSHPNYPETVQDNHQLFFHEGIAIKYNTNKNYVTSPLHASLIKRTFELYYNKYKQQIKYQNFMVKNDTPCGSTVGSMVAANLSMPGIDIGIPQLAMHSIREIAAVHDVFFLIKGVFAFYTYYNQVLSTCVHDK

[14] = target: T3, Leucine aminopeptidase (Plasmodium falciparum 3D7, UniProt Q8IL11); assay: P. falciparum M17LAP inhibitors, primary screen, biochemical, fluorogenic H-Leu-NHMec substrate, 1536-well (AID 1619); type: functional
T3 sequence (Q8IL11 whole entry): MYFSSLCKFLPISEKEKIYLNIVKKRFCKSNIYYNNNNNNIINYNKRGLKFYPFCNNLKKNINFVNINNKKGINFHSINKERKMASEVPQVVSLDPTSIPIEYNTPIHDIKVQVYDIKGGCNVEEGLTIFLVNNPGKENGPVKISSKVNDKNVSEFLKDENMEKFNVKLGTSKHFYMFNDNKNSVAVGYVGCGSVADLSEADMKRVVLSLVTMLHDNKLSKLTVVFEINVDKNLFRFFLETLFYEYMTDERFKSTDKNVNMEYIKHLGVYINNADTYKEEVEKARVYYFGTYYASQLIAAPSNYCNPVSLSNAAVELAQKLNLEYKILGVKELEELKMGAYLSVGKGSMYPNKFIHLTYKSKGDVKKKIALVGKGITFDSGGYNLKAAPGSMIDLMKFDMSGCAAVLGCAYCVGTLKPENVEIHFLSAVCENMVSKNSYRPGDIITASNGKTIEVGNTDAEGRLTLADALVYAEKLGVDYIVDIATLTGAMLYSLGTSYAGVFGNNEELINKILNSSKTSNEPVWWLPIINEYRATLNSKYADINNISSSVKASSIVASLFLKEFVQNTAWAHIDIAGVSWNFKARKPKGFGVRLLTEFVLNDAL

[15] = cells
[16] = inhibitors of intracellular T. cruzi replication, confirmation, NIH3T3 host cells, beta-gal luminescence (AID 2044); type: functional, cell-based;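 further: intracellular parasites grown in NIH/3T3 mouse fibroblasts as host cells; luminescent beta-galactosidase reporter signal from transgenic T. cruzi replicating inside host cells; inhibitors lower the luminescence signal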
[17] = cytotoxicity toward NIH3T3 fibroblasts, dose response, counter-screen, cell-based, ATP luminescence, mouse fibroblasts (AID 2010); type: functional;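 further: cells exposed to compound for about 90 hours before reading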
[18] = Vero cell cytotoxicity, dose response, cytotoxicity control for Vif-APOBEC3G degradation inhibitor project, Vero cells (AID 1117358); type: functional; conditions: Human immunodeficiency virus 1, Vero

Sequence of Procathepsin L (P07711 whole entry): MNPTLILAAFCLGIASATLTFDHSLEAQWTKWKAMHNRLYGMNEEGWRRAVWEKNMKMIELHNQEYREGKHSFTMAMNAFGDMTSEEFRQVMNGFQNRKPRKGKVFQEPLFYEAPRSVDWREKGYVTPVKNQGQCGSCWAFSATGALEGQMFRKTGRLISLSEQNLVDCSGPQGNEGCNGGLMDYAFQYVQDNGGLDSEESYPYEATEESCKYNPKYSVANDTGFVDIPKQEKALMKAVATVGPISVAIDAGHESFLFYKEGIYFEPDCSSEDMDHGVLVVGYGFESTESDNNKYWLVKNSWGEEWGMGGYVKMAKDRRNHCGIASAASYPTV
Sequence of Paired box protein Pax-8 (Q06710 whole entry): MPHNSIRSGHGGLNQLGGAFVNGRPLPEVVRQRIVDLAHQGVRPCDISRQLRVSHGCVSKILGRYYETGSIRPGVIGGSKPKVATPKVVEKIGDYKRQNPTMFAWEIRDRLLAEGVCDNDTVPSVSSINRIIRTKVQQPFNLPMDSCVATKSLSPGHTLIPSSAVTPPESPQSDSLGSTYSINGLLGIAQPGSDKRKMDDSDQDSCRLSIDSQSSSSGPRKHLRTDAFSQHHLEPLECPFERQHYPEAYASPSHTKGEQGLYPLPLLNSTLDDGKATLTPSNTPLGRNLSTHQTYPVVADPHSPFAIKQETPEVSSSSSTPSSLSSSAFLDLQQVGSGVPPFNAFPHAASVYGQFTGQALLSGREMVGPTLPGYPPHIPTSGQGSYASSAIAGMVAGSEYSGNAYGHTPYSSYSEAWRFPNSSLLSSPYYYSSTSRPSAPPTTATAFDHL

## COc1ccccc1Oc1ccc(S(=O)(=O)NCc2ccccn2)cc1
[1]
  IC50: > 100 µM (not active)
[2]
  AC50: 25.1 µM (active)
[3]
  AC50: 14.8 µM (active)

## C[C@H](O)C#Cc1ccc2c(c1)O[C@H](CN(C)Cc1ccc(-c3ccccc3)cc1)[C@@H](C)CN([C@H](C)CO)S2(=O)=O
[4]
  AC50: 15.9 µM (active)
[5]
  AC50: 35.1 µM (active)
[6]
  AC50: 6.13 µM (active)
[7]
  AC50: 7.51 µM (active)
[8]
  AC50: 16.7 µM (active)
[9]
  AC50: 59.6 µM (active)

## COc1ccc2c3c(n(C)c2c1)[C@@H](CO)NCC31CN(Cc2ccc(-c3ccccn3)cc2)C1
[10]
  AC50: 20.4 µM (active)
[11]
  AC50: 1.66 µM (active)

## Cc1ccc(-c2cccc(NC(=O)C3C4C=CC(C4)C3C(=O)O)c2)o1 (stereo unspecified)
[12]
  IC50: > 59.6 µM (not active)
[13]
  IC50: > 73.5 µM (not active)
[14]
  IC50: 3.86 µM (active)

## C[C@@H]1CN([C@H](C)CO)S(=O)(=O)c2ccc(C#C[C@@H](C)O)cc2O[C@H]1CN(C)Cc1ccc(-c2ccccc2)cc1
[5]
  AC50: > 52 µM (inactive)
[9]
  AC50: > 60 µM (inactive)

## O=C(NCC(c1cccnc1)N1CCN(c2ccccc2F)CC1)OCc1ccccc1 (stereo unspecified)
[15]
  EC50: 0.071 µM (active)
[16]
  EC50: < 0.1 µM (active)
[17]
  EC50: > 60 µM (not active)

## Clc1ccccc1Cn1nnc2c(NCCN3CCOCC3)ncnc21
[1]
  IC50: > 100 µM (not active)

## CCOc1c(OC)cccc1C1CC(=O)Nc2cc3c(cc21)OCCO3 (stereo unspecified)
[18]
  CC50: > 40 µM (active)
